Data: patent publication US20110053773A1, “METHODS OF IMPROVING NUTRITIONAL VALUE OF PLANTS” (UNIVERSITY OF TENNESSEE RESEARCH FOUNDATION, priority 2009, published 2011)

System: switchgrass "Alamo"
Assay: Sugar content of switchgrass after isoxaben (Example 6)
Type: in vivo
Conditions: 1120 g ai/ha + 1% v/v crop oil concentrate POST; harvested 8 weeks after application; % of fresh weight basis
Method: Switchgrass was harvested 8 weeks after application and three replicates were analyzed compared with an untreated check. Sugar content was assessed on a percentage of the fresh weight and values were converted to a percentage of values derived from the untreated control. Isoxaben increased fructose by 44%, glucose by 33%, and total sugars by 38% in comparison to the untreated check. Switchgrass is currently under evaluations as a biofuels crop whereby enhanced sugar output per acre is desired.

Compound: CCC(C)(CC)c1cc(NC(=O)c2c(OC)cccc2OC)on1 [Isoxaben, isoxaben]
- fructose increase in comparison to the untreated check: 44%
- glucose increase in comparison to the untreated check: 33%
- total sugars increase in comparison to the untreated check: 38%
